Measured values: patent US10227350B2 (Gilead Sciences, Inc., priority 2016, dated 2019)

Molecular target: PI3Kβ (Homo sapiens (Human), UniProt P42338)
Test: TR-FRET enzymatic activity assay, PI3Kβ
Type: biochemical
Conditions: 2× Km ATP, 2 μM PIP2, 30 minutes at 25° C., read-out: IC50-PIP-Beta
In short: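 Purified recombinant heterodimeric PI3Kβ; PIP3 formation read by TR-FRET as competition with fluorescent tracer for GRP-1 PH domain binding. Compounds incubated 30 min at 25 °C.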

Sequence of PI3Kβ (P42338 whole entry): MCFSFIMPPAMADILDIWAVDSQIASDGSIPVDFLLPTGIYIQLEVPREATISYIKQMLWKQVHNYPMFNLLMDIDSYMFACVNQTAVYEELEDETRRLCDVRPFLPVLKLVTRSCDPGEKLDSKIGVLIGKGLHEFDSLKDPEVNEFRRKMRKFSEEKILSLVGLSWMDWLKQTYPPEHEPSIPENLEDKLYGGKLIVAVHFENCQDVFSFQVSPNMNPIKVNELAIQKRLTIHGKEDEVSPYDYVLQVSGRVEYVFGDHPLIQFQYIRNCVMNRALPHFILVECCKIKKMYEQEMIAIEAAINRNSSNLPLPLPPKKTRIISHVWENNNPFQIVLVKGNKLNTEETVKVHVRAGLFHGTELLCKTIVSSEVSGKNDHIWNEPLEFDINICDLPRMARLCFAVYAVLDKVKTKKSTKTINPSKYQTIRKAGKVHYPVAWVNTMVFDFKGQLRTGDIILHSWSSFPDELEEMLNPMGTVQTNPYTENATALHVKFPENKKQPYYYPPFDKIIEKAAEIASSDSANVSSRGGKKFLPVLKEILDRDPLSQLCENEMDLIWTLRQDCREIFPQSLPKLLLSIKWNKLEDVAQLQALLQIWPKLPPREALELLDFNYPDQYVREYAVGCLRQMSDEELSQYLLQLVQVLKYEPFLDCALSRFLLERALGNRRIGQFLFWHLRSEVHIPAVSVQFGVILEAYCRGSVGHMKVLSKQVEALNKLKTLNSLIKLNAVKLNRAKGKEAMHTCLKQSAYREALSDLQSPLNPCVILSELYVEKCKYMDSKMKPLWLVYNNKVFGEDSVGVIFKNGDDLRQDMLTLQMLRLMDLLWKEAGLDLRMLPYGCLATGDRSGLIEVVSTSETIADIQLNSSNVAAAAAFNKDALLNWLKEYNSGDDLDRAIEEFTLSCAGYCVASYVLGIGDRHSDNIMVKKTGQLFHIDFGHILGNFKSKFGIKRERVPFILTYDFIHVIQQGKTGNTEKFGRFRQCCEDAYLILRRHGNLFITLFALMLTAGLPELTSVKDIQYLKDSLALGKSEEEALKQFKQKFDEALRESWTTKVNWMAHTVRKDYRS
Sequence of PI3Kβ (P27986 whole entry partner): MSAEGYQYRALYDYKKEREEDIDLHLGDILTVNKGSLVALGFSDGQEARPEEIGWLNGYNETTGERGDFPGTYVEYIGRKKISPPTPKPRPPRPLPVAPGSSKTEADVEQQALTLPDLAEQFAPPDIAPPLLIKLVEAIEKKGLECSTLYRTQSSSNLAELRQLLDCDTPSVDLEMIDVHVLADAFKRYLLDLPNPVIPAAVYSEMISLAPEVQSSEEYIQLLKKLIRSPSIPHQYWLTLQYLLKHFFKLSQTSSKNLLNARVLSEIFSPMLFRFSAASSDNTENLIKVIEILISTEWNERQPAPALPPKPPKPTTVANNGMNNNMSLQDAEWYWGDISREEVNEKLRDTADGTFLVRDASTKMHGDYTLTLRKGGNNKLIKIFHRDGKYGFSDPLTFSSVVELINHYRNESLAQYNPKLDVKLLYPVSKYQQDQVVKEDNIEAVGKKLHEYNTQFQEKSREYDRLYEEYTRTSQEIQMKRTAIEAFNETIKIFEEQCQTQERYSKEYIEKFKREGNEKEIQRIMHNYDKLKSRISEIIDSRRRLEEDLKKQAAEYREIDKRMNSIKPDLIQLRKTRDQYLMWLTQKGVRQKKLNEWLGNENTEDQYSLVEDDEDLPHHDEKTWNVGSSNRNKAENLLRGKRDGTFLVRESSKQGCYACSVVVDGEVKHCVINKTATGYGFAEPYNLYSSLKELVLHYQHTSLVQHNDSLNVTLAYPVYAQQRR

SMILES | IC50
Cc1nc2c(-c3nnc[nH]3)cc(-c3ccnc(N)c3Cl)cc2n1-c1ccnc2c(F)ccc(F)c12 [Example 91, 3-chloro-4-[3-(5,8-difluoroquinolin-4-yl)-2-methyl-7-(4H-1,2,4-triazol-3-yl)benzimidazol-5-yl]pyridin-2-amine] | 19 nM
Cc1nc2c(C(N)=O)cc(-c3ccncc3)cc2n1-c1ccnc2c(F)ccc(F)c12 [Example 6, 1-(5,8-difluoroquinolin-4-yl)-2-methyl-6-pyridin-4-ylbenzimidazole-4-carboxamide] | 36 nM
Cc1nc2c(-c3nnc[nH]3)cc(-c3ccnc(N)c3)cc2n1-c1ccnc2cc(F)ccc12 [Example 53, 4-[3-(7-fluoroquinolin-4-yl)-2-methyl-7-(4H-1,2,4-triazol-3-yl)benzimidazol-5-yl]pyridin-2-amine] | 180 nM
Cc1nc2c(-c3nnc[nH]3)cc(-c3ccncc3)cc2n1-c1ccnc2c(Cl)ccc(Cl)c12 [Example 29, 5,8-dichloro-4-[2-methyl-6-pyridin-4-yl-4-(4H-1,2,4-triazol-3-yl)benzimidazol-1-yl]quinoline] | 6 nM
Cc1nc2c(-c3nnc[nH]3)cc(-c3ccnc(C#N)c3)cc2n1-c1ccnc2c(Cl)ccc(Cl)c12 (single isomer, unassigned) [Example 122, 4-(1-(5,8-dichloroquinolin-4-yl)-2-methyl-4-(4H-1,2,4-triazol-3-yl)-1H-benzo[d]imidazol-6-yl)picolinonitrile] | 28 nM
Cc1nc2c(C(N)=O)cc(-c3ccnc(N)c3)cc2n1-c1ccnc2c(Cl)ccc(F)c12 [Example 18, 6-(2-aminopyridin-4-yl)-1-(8-chloro-5-fluoroquinolin-4-yl)-2-methylbenzimidazole-4-carboxamide] | 23 nM
CCCc1nc2c(-c3nnc[nH]3)cc(-c3ccnc(N)c3F)cc2n1-c1ccnc2c(F)ccc(F)c12 [Example 78, 4-[3-(5,8-difluoroquinolin-4-yl)-2-propyl-7-(4H-1,2,4-triazol-3-yl)benzimidazol-5-yl]-3-fluoropyridin-2-amine] | 5 nM
Cc1nc2c(C(N)=O)cc(-c3ncnc4[nH]cnc34)cc2n1-c1ccnc2c(Cl)cccc12 [Example 20, 1-(8-chloroquinolin-4-yl)-2-methyl-6-(9H-purin-6-yl)benzimidazole-4-carboxamide] | 1100 nM
Cc1nnc(-c2cc(-c3ccncc3)cc3c2nc(C)n3-c2ccnc3c(Cl)cccc23)[nH]1 [Example 35, 8-chloro-4-[2-methyl-4-(5-methyl-4H-1,2,4-triazol-3-yl)-6-pyridin-4-ylbenzimidazol-1-yl]quinoline] | 22 nM
Nc1nccc(-c2cc(-c3nnc[nH]3)c3nc(C4CC4)n(-c4ccnc5c(Cl)cccc45)c3c2)c1F [Example 79, 4-[3-(8-chloroquinolin-4-yl)-2-cyclopropyl-7-(4H-1,2,4-triazol-3-yl)benzimidazol-5-yl]-3-fluoropyridin-2-amine] | 8 nM
Cc1nc2c(-c3nnc[nH]3)cc(-c3cc(F)ncc3F)cc2n1-c1ccnc2c(F)ccc(F)c12 [Example 41, 4-[6-(2,5-difluoropyridin-4-yl)-2-methyl-4-(4H-1,2,4-triazol-3-yl)benzimidazol-1-yl]-5,8-difluoroquinoline] | 27 nM
